Results as given in patent publication US20250215012A1, “IKZF2 DEGRADERS AND USES THEREOF” (REGENTS OF THE UNIVERSITY OF MICHIGAN, priority 2022, published 2025).

Target: IKZF2 (Homo sapiens (Human), UniProt Q96SW2+Q9UKS7)
Test: IKZF2 HiBiT Assay (Jurkat-IKZF2-HiBiT cell line)
Type: cell-based
Conditions: Jurkat-IKZF2-HiBiT cells, 24 hours; for DC50: read-out: HiBit assay degradation analysis DC50; for Dmax: read-out: HiBit assay degradation analysis Dmax
Method in brief: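 IKZF2 degradation was assessed as HiBiT luminescence in Jurkat-IKZF2-HiBiT cells, using lytic detection after 24 h of compound treatment at 37 °C, 5% CO2.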

IKZF2, sequence (Q9UKS7 whole entry): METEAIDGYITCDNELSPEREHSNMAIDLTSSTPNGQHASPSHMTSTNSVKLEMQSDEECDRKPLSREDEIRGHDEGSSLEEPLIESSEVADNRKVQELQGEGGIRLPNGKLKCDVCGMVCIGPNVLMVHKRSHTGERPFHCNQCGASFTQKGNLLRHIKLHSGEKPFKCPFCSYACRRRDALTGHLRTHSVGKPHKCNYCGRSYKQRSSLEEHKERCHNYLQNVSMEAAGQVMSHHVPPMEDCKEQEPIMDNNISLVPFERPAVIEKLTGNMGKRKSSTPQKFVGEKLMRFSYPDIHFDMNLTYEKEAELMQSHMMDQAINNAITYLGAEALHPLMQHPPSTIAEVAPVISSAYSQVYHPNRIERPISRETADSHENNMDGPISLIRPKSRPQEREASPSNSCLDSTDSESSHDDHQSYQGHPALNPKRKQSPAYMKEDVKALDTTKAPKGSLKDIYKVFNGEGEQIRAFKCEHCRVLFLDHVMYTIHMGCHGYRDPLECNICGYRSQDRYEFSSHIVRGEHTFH
IKZF2, sequence (Q96SW2 whole entry): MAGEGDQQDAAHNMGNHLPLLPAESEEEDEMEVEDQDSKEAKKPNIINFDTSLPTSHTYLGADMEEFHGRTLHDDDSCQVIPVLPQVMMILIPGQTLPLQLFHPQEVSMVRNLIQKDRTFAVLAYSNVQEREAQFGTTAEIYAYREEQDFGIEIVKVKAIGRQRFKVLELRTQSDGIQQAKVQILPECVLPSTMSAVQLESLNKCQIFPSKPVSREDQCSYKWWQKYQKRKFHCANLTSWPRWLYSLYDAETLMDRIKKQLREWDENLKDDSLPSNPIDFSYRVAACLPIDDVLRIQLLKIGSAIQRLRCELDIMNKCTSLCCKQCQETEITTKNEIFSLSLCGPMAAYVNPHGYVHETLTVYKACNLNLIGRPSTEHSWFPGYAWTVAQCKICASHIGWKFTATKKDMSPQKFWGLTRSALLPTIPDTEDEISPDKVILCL
IKZF2, sequence (Q16531 whole entry partner): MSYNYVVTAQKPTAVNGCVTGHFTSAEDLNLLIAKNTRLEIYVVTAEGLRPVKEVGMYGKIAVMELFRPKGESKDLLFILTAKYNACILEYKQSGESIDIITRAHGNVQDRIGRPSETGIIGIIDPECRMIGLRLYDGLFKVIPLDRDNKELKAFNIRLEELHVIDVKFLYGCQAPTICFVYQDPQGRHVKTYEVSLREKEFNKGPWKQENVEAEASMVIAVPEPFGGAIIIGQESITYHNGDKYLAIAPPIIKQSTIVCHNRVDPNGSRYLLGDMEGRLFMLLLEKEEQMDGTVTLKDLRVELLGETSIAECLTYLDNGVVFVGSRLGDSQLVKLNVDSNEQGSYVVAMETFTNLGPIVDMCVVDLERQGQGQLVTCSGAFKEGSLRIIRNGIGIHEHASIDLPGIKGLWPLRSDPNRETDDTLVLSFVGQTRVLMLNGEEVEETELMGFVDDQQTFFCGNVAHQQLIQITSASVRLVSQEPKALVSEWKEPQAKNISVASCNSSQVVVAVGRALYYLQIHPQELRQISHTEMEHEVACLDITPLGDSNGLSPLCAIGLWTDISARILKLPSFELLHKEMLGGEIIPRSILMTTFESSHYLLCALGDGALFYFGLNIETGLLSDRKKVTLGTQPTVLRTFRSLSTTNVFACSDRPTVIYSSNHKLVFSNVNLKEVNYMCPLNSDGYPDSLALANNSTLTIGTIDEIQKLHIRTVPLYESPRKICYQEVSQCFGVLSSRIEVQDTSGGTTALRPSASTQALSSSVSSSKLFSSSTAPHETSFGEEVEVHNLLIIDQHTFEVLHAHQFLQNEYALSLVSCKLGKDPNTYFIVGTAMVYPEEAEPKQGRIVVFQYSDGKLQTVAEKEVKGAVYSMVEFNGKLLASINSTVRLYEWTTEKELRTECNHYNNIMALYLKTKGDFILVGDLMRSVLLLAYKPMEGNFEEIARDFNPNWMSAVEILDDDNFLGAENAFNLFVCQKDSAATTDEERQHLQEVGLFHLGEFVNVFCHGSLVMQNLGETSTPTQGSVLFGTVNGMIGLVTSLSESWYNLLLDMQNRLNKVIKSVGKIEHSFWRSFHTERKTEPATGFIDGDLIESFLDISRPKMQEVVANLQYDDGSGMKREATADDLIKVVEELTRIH

Structure (SMILES) | DC50 [µM] | Dmax [%]
O=C1CCC(N2Cc3c(ccc4c3OCC43CCN(Cc4cccc(-n5ccnc5)c4)CC3)C2=O)C(=O)N1 (stereo not drawn) [Compound A108, 3-(1′-(3-(1H-imidazol-1-yl)benzyl)-6-oxo-6,8-dihydro-2H,7H-spiro[furo[2,3-e]isoindole-3,4′-piperidin]-7-yl)piperidine-2,6-dione] | > 0.5 | 40 to 60
O=C1CCC(N2Cc3c(ccc4c3OCC43CCN(Cc4cnn(-c5ccccc5F)c4)CC3)C2=O)C(=O)N1 (stereo not drawn) [Compound A310, 3-(1′-((1-(2-fluorophenyl)-1H-pyrazol-4-yl)methyl)-6-oxo-6,8-dihydro-2H,7H-spiro[furo[2,3-e]isoindole-3,4′-piperidin]-7-yl)piperidine-2,6-dione] | > 0.5 | < 40
O=C1CCC(N2Cc3c(ccc4c3OCC43CCN(CC4C5CC6CC(C5)CC4C6)CC3)C2=O)C(=O)N1 (stereo not drawn) [Compound A23, 3-(1′-(((1r,3r,5r,7r)-adamantan-2-yl)methyl)-6-oxo-6,8-dihydro-2H,7H-spiro[furo[2,3-e]isoindole-3,4′-piperidin]-7-yl)piperidine-2,6-dione] | > 0.5 | < 40
Cc1cc(CN2CCC3(CC2)COc2c3ccc3c2CN([C@H]2CCC(=O)NC2=O)C3=O)cc(-c2cnn(C3COC3)c2)c1 [Compound A279, (S)-3-(1′-(3-methyl-5-(1-(oxetan-3-yl)-1H-pyrazol-4-yl)benzyl)-6-oxo-6,8-dihydro-2H,7H-spiro[furo[2,3-e]isoindole-3,4′-piperidin]-7-yl)piperidine-2,6-dione] | < 0.05 | 60 to 80
Cn1c(=O)oc2ccc(CN3CCC4(CC3)COc3c4ccc4c3CN(C3CCC(=O)NC3=O)C4=O)cc21 (stereo not drawn) [Compound A175, 3-(1′-((3-methyl-2-oxo-2,3-dihydrobenzo[d]oxazol-5-yl)methyl)-6-oxo-6,8-dihydro-2H,7H-spiro[furo[2,3-e]isoindole-3,4′-piperidin]-7-yl)piperidine-2,6-dione] | > 0.5 | < 40
Cn1cc2ccc(CN3CCC4(CC3)COc3c4ccc4c3CN([C@H]3CCC(=O)NC3=O)C4=O)cc2n1 [Compound A169, (S)-3-(1′-((2-methyl-2H-indazol-6-yl)methyl)-6-oxo-6,8-dihydro-2H,7H-spiro[furo[2,3-e]isoindole-3,4′-piperidin]-7-yl)piperidine-2,6-dione] | < 0.05 | 60 to 80
O=C1CCC(N2Cc3c(ccc4c3OCC43CCN(Cc4ccn(-c5cccc(F)c5)n4)CC3)C2=O)C(=O)N1 (stereo not drawn) [Compound A316, 3-(1′-((1-(3-fluorophenyl)-1H-pyrazol-3-yl)methyl)-6-oxo-6,8-dihydro-2H,7H-spiro[furo[2,3-e]isoindole-3,4′-piperidin]-7-yl)piperidine-2,6-dione] | > 0.5 | 40 to 60
O=C1CCC(N2Cc3c(ccc4c3OCC43CCN(Cc4cnn(S(=O)(=O)c5cccc(Cl)c5)c4)CC3)C2=O)C(=O)N1 [Compound A350, (S)-3-(1′-((1-((3-chlorophenyl)sulfonyl)-1H-pyrazol-4-yl)methyl)-6-oxo-6,8-dihydro-2H,7H-spiro[furo[2,3-e]isoindole-3,4′-piperidin]-7-yl)piperidine-2,6-dione] | < 0.05 | –
O=C1CC[C@H](N2Cc3c(ccc4c3OCC43CCN(Cc4cccc(-c5cnn(C[C@H]6CCO6)c5)c4)CC3)C2=O)C(=O)N1 [Compound A273, (S)-3-(1′-(3-(1-(((R)-oxetan-2-yl)methyl)-1H-pyrazol-4-yl)benzyl)-6-oxo-6,8-dihydro-2H,7H-spiro[furo[2,3-e]isoindole-3,4′-piperidin]-7-yl)piperidine-2,6-dione] | 0.05 to 0.2 | 60 to 80
O=C1CCC(N2Cc3c(ccc4c3OCC43CCN(Cc4ccc5nccnc5c4)CC3)C2=O)C(=O)N1 (stereo not drawn) [Compound A48, 3-(6-oxo-1′-(quinoxalin-6-ylmethyl)-6,8-dihydro-2H,7H-spiro[furo[2,3-e]isoindole-3,4′-piperidin]-7-yl)piperidine-2,6-dione] | > 0.5 | < 40
O=C1CCC(N2Cc3c(ccc4c3OCC43CCN(Cc4cccc(C5CC5)c4)CC3)C2=O)C(=O)N1 (stereo not drawn) [Compound A204, 3-(1′-(3-cyclopropylbenzyl)-6-oxo-6,8-dihydro-2H,7H-spiro[furo[2,3-e]isoindole-3,4′-piperidin]-7-yl)piperidine-2,6-dione] | > 0.5 | 40 to 60
O=C1CCC(N2Cc3c(ccc4c3OCC43CCN(Cc4ccc(-c5ccccc5)cc4)CC3)C2=O)C(=O)N1 (stereo not drawn) [Compound A25, 3-(1′-([1,1′-biphenyl]-4-ylmethyl)-6-oxo-6,8-dihydro-2H,7H-spiro[furo[2,3-e]isoindole-3,4′-piperidin]-7-yl)piperidine-2,6-dione] | > 0.5 | 40 to 60
O=C1CCC(N2Cc3c(ccc4c3OCC43CCN(Cc4cncc(Cl)c4)CC3)C2=O)C(=O)N1 (stereo not drawn) [Compound A248, 3-(1′-((5-chloropyridin-3-yl)methyl)-6-oxo-6,8-dihydro-2H,7H-spiro[furo[2,3-e]isoindole-3,4′-piperidin]-7-yl)piperidine-2,6-dione] | > 0.5 | < 40
O=C1CCC(N2Cc3c(ccc4c3OCC43CCN(Cc4ccnn4C4CCOCC4)CC3)C2=O)C(=O)N1 (stereo not drawn) [Compound A255, 3-(6-oxo-1′-((1-(tetrahydro-2H-pyran-4-yl)-1H-pyrazol-5-yl)methyl)-6,8-dihydro-2H,7H-spiro[furo[2,3-e]isoindole-3,4′-piperidin]-7-yl)piperidine-2,6-dione] | > 0.5 | < 40
COc1ccccc1CN1CCC2(CC1)COc1c2ccc2c1CN(C1CCC(=O)NC1=O)C2=O (stereo not drawn) [Compound A215, 3-(1′-(2-methoxybenzyl)-6-oxo-6,8-dihydro-2H,7H-spiro[furo[2,3-e]isoindole-3,4′-piperidin]-7-yl)piperidine-2,6-dione] | 0.2 to 0.5 | 40 to 60
N#CCc1ccc(CN2CCC3(CC2)COc2c3ccc3c2CN(C2CCC(=O)NC2=O)C3=O)cc1 (stereo not drawn) [Compound A196, 2-(4-((7-(2,6-dioxopiperidin-3-yl)-6-oxo-7,8-dihydro-2H,6H-spiro[furo[2,3-e]isoindole-3,4′-piperidin]-1′-yl)methyl)phenyl)acetonitrile] | 0.05 to 0.2 | 60 to 80
O=C1CCC(N2Cc3c(ccc4c3OCC43CCN(Cc4nn(CC5CCCCC5)c5ccccc45)CC3)C2=O)C(=O)N1 (stereo not drawn) [Compound A329, 3-(1′-((1-(cyclohexylmethyl)-1H-indazol-3-yl)methyl)-6-oxo-6,8-2H,7H-spiro[furo[2,3-e]isoindole-3,4′-piperidin]-7-yl)piperidine-2,6-dione] | 0.05 to 0.2 | 60 to 80
O=C1CCC(N2Cc3c(ccc4c3OCC43CCN(Cc4ccccc4Cn4cccn4)CC3)C2=O)C(=O)N1 (stereo not drawn) [Compound A155, 3-(1′-(2-((1H-pyrazol-1-yl)methyl)benzyl)-6-oxo-6,8-dihydro-2H,7H-spiro[furo[2,3-e]isoindole-3,4′-piperidin]-7-yl)piperidine-2,6-dione] | > 0.5 | 40 to 60
O=C1CCC(N2Cc3c(ccc4c3OCC43CCN(CC4CCN(c5ccccc5)CC4)CC3)C2=O)C(=O)N1 (stereo not drawn) [Compound A123, 3-(6-oxo-1′-((1-phenylpiperidin-4-yl)methyl)-6,8-dihydro-2H,7H-spiro[furo[2,3-e]isoindole-3,4′-piperidin]-7-yl)piperidine-2,6-dione] | > 0.5 | 40 to 60
CCc1ccc(CN2CCC3(CC2)COc2c3ccc3c2CN(C2CCC(=O)NC2=O)C3=O)cc1 (stereo not drawn) [Compound A16, 3-(1′-(4-ethylbenzyl)-6-oxo-6,8-dihydro-2H,7H-spiro[furo[2,3-e]isoindole-3,4′-piperidin]-7-yl)piperidine-2,6-dione] | > 0.5 | < 40
O=C1CCC(N2Cc3c(ccc4c3OCC43CCN(CC4(c5ccccc5)CC4)CC3)C2=O)C(=O)N1 (stereo not drawn) [Compound A333, 3-(6-oxo-1′-((1-phenylcyclopropyl)methyl)-6,8-dihydro-2H,7H-spiro[furo[2,3-e]isoindole-3,4′-piperidin]-7-yl)piperidine-2,6-dione] | > 0.5 | 40 to 60
O=C1CCC(N2Cc3c(ccc4c3OCC43CCN(Cc4ccc(F)c5ccoc45)CC3)C2=O)C(=O)N1 (stereo not drawn) [Compound A118, 3-(1′-((4-fluorobenzofuran-7-yl)methyl)-6-oxo-6,8-dihydro-2H,7H-spiro[furo[2,3-e]isoindole-3,4′-piperidin]-7-yl)piperidine-2,6-dione] | > 0.5 | 40 to 60
O=C1CCC(N2Cc3c(ccc4c3OCC43CCN(Cc4ccn5ccnc5c4)CC3)C2=O)C(=O)N1 (stereo not drawn) [Compound A78] | 0.2 to 0.5 | 40 to 60
COCCn1cc2cc(CN3CCC4(CC3)COc3c4ccc4c3CN(C3CCC(=O)NC3=O)C4=O)ccc2n1 (stereo not drawn) [Compound A341, 3-(1′-((2-(2-methoxyethyl)-2H-indazol-5-yl)methyl)-6-oxo-6,8-dihydro-2H,7H-spiro[furo[2,3-e]isoindole-3,4′-piperidin]-7-yl) piperidine-2,6-dione] | > 0.5 | < 40
CC1(Cn2cc(CN3CCC4(CC3)COc3c4ccc4c3CN(C3CCC(=O)NC3=O)C4=O)cn2)COC1 (stereo not drawn) [Compound A320, 3-(1′-((1-((3-methyloxetan-3-yl)methyl)-1H-pyrazol-4-yl)methyl)-6-oxo-6,8-dihydro-2H,7H-spiro[furo[2,3-e]isoindole-3,4′-piperidin]-7-yl)piperidine-2,6-dione] | > 0.5 | 40 to 60
Cn1ccc(COc2cccc(CN3CCC4(CC3)COc3c4ccc4c3CN(C3CCC(=O)NC3=O)C4=O)c2)n1 (stereo not drawn) [Compound A167, 3-(1′-(3-((1-methyl-1H-pyrazol-3-yl)methoxy)benzyl)-6-oxo-6,8-dihydro-2H,7H-spiro[furo[2,3-e]isoindole-3,4′-piperidin]-7-yl)piperidine-2,6-dione] | 0.05 to 0.2 | 40 to 60
